What was measured:
opsin = biological target: T1, opsin (Bos taurus, UniProt P02699); test: Photoisomerization (bleaching) of 11-cis-7-ring-retinals in solution and bound to opsin
T1 construct: Preparation of rod outer segment, opsin, rhodopsin regeneration with retinals; from tissue; host or cells: rod outer segments
Protocol: Preparation of rod outer segment, opsin, rhodopsin regeneration with retinals, and purification of rhodopsin on a concanavalin A-Sepharose 4B column were conducted as described previously (Jang et al., J. Biol. Chem. 276:26148-53 (2001)).

rhodopsin = biological target: T2, rhodopsin (Bos taurus, UniProt P02699); test: FTIR spectroscopy of regenerated rhodopsin; format: biochemical; conditions: for FTIR difference spectra of regenerated rhodopsin upon photoactivation: 7-ring analogs
T2 construct: Opsin membranes (24 μM) (Sachs et al., J. Biol. Chem. 275:6189-94 (2000)); from tissue; rod outer segment membranes by inference
Protocol: Opsin membranes (24 μM) (Sachs et al., J. Biol. Chem. 275:6189-94 (2000)) were incubated overnight with 240 μM 11-cis-retinal or with the mixture of either 11-cis-6-ring- or 11-cis-7-ring-retinal isomers in the BTP buffer (20 mM BTP, pH 7.5, containing 1 mM MgCl2 and 130 mM NaCl). Suspensions of membranes were centrifuged for 25 minutes at 100,000×g and resuspended in the BTP buffer to yield 2.2 mM rhodopsin (from absorption at 500 nm). […] For H2O/D2O exchange, the pellet was resuspended three times in deuterated buffer. The buffer solution was removed, and the pellet transferred to a 30-mm-diameter temperature-controlled transmission cell with two BaF2 windows and a 3 μm polytetrafluoroethylen gasket. The spectra were recorded using a Bruker ifs 66-V spectrometer (Bard et al., FEBS Lett. 473:259-64 (2000)). For all samples, Meta II minus rhodopsin difference spectra were produced.

Gt = test: Kinetic light scattering (Gt activation); format: biochemical
Protocol: Light-scattering changes were measured as previously described (Heck et al., Methods Enzymol. 315:32947 (2000)). Measurements were performed in 10-mm path cuvettes with 300-μl volumes in isotonic buffer (20 mM BTP, 130 mM NaCl, and 1 mM MgCl2, pH 6.4, as indicated in the legend to FIG. 6) at 22° C. with a 5-ms dwell time of the A/D converter (Nicolet 400, Madison, Wis.). Samples contained membrane suspension (3 μM rhodopsin) reconstituted with purified Gt (0.8 μM) and 1 mM GTP. Reactions were triggered by flash photolysis of rhodopsin with a green (500±20 nm) flash attenuated by appropriate neutral density filters. The flash intensity was quantified photometrically by the amount of rhodopsin bleached and expressed in terms of the mole fraction of photoexcited rhodopsin (Rh*/Rh).

Rpe65−/− mice [1] = test: In vivo regeneration of rhodopsin with 6- and 7-ring isomers; parameters: species or system mouse
Source text: All animal studies employed procedures approved by the University of Washington Animal Care Committee and conformed to recommendations of the American Veterinary Medical Association Panel on Euthanasia. All animals were maintained in complete darkness, and all manipulations were done under dim red light employing a Kodak No. 1 Safelight filter (transmittance >560 nm). Typically, 2-3-month-old mice were used in all studies. RPE65-deficient mice were obtained from M. Redmond (National Eye Institute, National Institutes of Health. Bethesda, Md.) and genotyped as described previously (Redmond et al., Nat. Genet. 20:344-51 (1998; Redmond et al. Methods Enzymol. 316:705-24 (2000)).
All procedures were performed under dim red light as described previously (Van Hooser et al., Proc. Natl. Acad. Sci. USA 97:862328 (2000); Jang. et al., J. Biol. Chem. 276:3245665 (2001); Palczewski et al., Biochemistry 38:12012-19 (1999)).

Rpe65−/− mice [2] = test system: Rpe65−/− mice
Protocol: Mice were anesthetized by intraperitoneal injection with 15 μl/g body weight of 6 mg/ml ketamine and 0.44 mg/ml xylazine diluted with 10 mM phosphate buffer, pH 7.2, containing 100 mM NaCl. The pupils were dilated with 1% tropicamide. A contact lens electrode was placed on the eye with a drop of methylcellulose, and a ground electrode (a reference electrode) was placed in the ear. ERGs were recorded with the universal testing and electrophysiologic system 3000 (UTAS E-3000) (LKC Technologies, Inc.). The mice were placed in a Ganzfield chamber, and responses to flash stimuli were obtained from both eyes simultaneously. […] Two to four recordings were made with >10-second intervals. Typically, 4-8 animals were used for recording of each point in all conditions. All ERG measurements were done within 10-40 minutes after anesthesia.

rhodopsin kinase = test: Phosphorylation of regenerated rhodopsin by rhodopsin kinase; format: biochemical; conditions: in vitro
Protocol: Regenerated rhodopsin (2 mg/ml) was mixed in 100 μl of 100 mM sodium phosphate buffer, pH 7.2, containing 5 mM MgCl2, 0.5 mM [^32P]ATP (approximately 35,000 to approximately 50,000 cpm/nmol) and purified rhodopsin kinase (approximately 5 μg of protein), and the assay was carried out as described previously (Palczewski et al., J. Biol. Chem. 266:1294955 (1991)). Studies were performed in triplicate.

T2 sequence (P02699 whole entry): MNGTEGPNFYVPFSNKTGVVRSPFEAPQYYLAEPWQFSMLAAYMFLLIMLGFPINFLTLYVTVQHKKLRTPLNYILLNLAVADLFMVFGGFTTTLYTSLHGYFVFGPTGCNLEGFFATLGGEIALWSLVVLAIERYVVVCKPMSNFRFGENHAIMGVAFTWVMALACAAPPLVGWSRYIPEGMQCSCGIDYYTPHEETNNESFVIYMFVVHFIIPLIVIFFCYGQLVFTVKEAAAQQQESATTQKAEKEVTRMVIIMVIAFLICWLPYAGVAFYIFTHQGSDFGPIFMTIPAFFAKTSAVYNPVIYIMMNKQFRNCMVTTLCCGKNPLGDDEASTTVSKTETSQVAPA
T1 sequence (P02699 whole entry): as above

In the case of “9,11,13-tri-cis-7-ring retinal [isomer 1]”, the “abundance in isomer mixture after bleaching” value (opsin; bleaching 7-ring-retinoids in solution) is reported as “least abundant isomer” and the “FTIR difference spectra of regenerated rhodopsin upon photoactivation” value (“FTIR difference spectra” below) (rhodopsin) is reported as “only minor changes in the difference spectra”.
9,11-di-cis-7-ring retinal [isomer 4] was tested, and the “FTIR difference spectra” value (rhodopsin) was “only minor changes in the difference spectra”.
In the case of 11,13-di-cis-7-ring retinal [isomer 2], the “isomerization when bound to opsin” value (opsin) is reported as “converts readily to isomer 3 even in the dark” and the “FTIR difference spectra” value (rhodopsin) is reported as “inactive”.
In the case of 11-cis-6-ring-retinal, the “sensitivity of activity to hydroxylamine” value (Gt) is reported as “sensitive to hydroxylamine”, the “intensity of activating light flash needed for Gt activation rates comparable to wild-type rhodopsin” value (Gt; membranes with regenerated rhodopsin) is reported as 1350 fold and the “pH dependence of Gt activation” value (Gt; pH 6.4 vs 7.4) is reported as “enhanced at acidic pH”. For the same substance, the “isomeric products in visual pigment after injection of isomer mixture” value (Rpe65−/− mice [1]) was “three isomers”, the “activity of rhodopsin regenerated in vivo” value (Rpe65−/− mice [2]; Rpe65−/− mice) was “active at higher bleaches” and the “ERG activity (a- and b-wave) compared with Me2SO” value (Rpe65−/− mice [2]; mouse, in vivo) was “clearly elevated”.
“11-cis-6-ring-rhodopsin: rhodopsin regenerated with 11-cis-6-ring-retinal (2-carbon bridge)” was tested, and the “pKa of the light-induced active species” value (rhodopsin) was 5.4, the “FTIR: photoproduct after bleaching” value (rhodopsin; pH 4.5) was “Meta II-like product that is able to bind Gt-(340-350) derived peptide” and the “FTIR: activity after bleaching” value (rhodopsin; pH 7.5) was “only residual activity”. For the same substance, the “activity relative to the 7-locked pigment” value (Gt) was “markedly higher”.
For 11-cis-7-ring retinal [isomer 3], the “isomerization when bound to opsin” value (opsin) was “most stable to isomerization”, the “FTIR difference spectra” value (rhodopsin) was “inactive” and the “activity relative to wild-type” value (Gt; regenerated rhodopsin) was 0.10%. The “regeneration of opsin in vivo” value (Rpe65−/− mice [1]) was “readily and preferentially regenerated”.
For “11-cis-7-ring-rhodopsin: rhodopsin regenerated with 11-cis-7-ring-retinal”, the “activity in phosphorylation assay with purified rhodopsin kinase” value (rhodopsin kinase) was “inactive”.
In the case of “Meta II: catalytically active rhodopsin intermediate containing all-trans-retinal bound to Lys296 of opsin [reference compound]”, the “pKa of the light-induced active species” value (rhodopsin) is reported as 6.7.

From patent publication US8962691B2, “Retinoid replacements and opsin agonists and methods for the use thereof” (University of Washington, priority 2003, dated 2015)
